Here are results for 46 molecules from patent publication US20080090805A1, “CB-1 MODULATING COMPOUNDS AND THEIR USE” (ACADIA PHARMACEUTICALS INC., priority 2005, published 2008).

This assay concerns the target native CB1 receptors (Rattus norvegicus, UniProt P20272). Description: CB1 receptor rat binding assay ([3H]SR141716A, rat brain membranes). Particulars: rat brain membranes, [3H]SR141716A; for Ki: read-out: Binding rat pKi (converted).

Sequence of native CB1 receptors (P20272 whole entry): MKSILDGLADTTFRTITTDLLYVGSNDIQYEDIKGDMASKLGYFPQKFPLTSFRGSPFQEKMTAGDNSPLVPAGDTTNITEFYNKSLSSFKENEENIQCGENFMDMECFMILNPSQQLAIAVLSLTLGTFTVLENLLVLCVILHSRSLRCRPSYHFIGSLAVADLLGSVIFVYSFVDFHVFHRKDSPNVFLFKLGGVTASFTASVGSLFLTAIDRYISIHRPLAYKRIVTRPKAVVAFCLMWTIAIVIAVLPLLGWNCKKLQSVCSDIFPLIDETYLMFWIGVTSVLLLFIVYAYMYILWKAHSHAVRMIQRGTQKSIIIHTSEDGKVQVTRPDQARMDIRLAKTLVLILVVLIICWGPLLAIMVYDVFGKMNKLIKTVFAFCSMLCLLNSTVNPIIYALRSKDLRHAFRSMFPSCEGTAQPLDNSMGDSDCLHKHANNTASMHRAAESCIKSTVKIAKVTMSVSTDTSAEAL

Take `CC(CNC(=O)c1ccc2c(c1)N=C(c1ccc(Cl)cc1)c1ccccc1S2)c1ccccc1` (stereo not shown) [drawing 1288]: the Ki is 2 nM. As to `O=C(NCc1ccccc1Cl)c1ccc2c(c1)N=C(c1ccc(F)cc1)c1ccccc1S2` [drawing 1291], the Ki was 20 nM. In the case of `CCCC1=Nc2cc(C(=O)NCCN(CC)c3ccccc3)ccc2Sc2ccccc21` [drawing 1292], the Ki is 20 nM. In the case of `O=C(NCCc1cccnc1)c1ccc2c(c1)N=C(c1cccc(Cl)c1)c1ccccc1S2` [drawing 1293], the “Binding rat Inh %” value was 97% and the Ki was 20 nM. Regarding `O=C(NCc1ccncc1)c1ccc2c(c1)N=C(c1ccc(Cl)cc1)c1ccccc1S2` [drawing 1294], the “Binding rat Inh %” value is on record as 77% and the Ki was 20 nM. With `O=C(NCCc1ccccc1)c1ccc2c(c1)N=C(c1ccc(Cl)cc1)c1ccccc1S2` [drawing 1295], the Ki is 2.51 nM. Turning to `CCN(CCNC(=O)c1ccc2c(c1)N=C(C1CCCCC1)c1ccccc1S2)c1ccccc1` [drawing 1296], the Ki was 2.51 nM. On the same count and under the same terms, the value for `CCN(CCNC(=O)c1ccc2c(c1)N=C(c1ccc(F)cc1)c1ccccc1S2)c1ccccc1` [drawing 1297] was 2.51 nM; that for `CCN(CCNC(=O)c1ccc2c(c1)N=C(c1cccc(Cl)c1)c1ccccc1S2)c1ccccc1` [drawing 1298] was 2.51 nM. The same measure, in the same setting: the value for `O=C(NCc1ccc(F)cc1)c1ccc2c(c1)N=C(c1ccccc1F)c1ccccc1S2` [drawing 1299] was 20 nM; that for `CCCCNC(=O)c1ccc2c(c1)N=C(c1ccccc1)c1ccccc1S2` [drawing 1300] was 20 nM. Turning to `O=C(NCc1ccc(F)cc1)c1ccc2c(c1)N=C(c1ccc(Cl)cc1)c1ccccc1[S+]2[O-]` (stereo not shown) [drawing 1301], the Ki was 20 nM.

`CCN(CCNC(=O)c1ccc2c(c1)N=C(c1ccccc1F)c1ccccc1S2)c1ccccc1` [drawing 1302]: the Ki is 20 nM. As for `CC(C)CNC(=O)c1ccc2c(c1)N=C(c1ccsc1)c1ccccc1S2` [drawing 1303], the “Binding rat Inh %” value came to 90% and the Ki was 2.51 nM. For `CC(CNC(=O)c1ccc2c(c1)N=C(c1cccc(Cl)c1)c1ccccc1S2)c1ccccc1` (stereo not shown) [drawing 1304], the Ki is 2.51 nM. For `O=C(NN1CCCCC1)c1ccc2c(c1)N=C(c1ccc(Cl)c(Cl)c1)c1ccccc1S2` [drawing 1305], the “Binding rat Inh %” value was found to be 96% and the Ki is 2.51 nM. Turning to `O=C(NC1CCCCC1)c1ccc2c(c1)N=C(c1cccc(F)c1)c1ccccc1S2` [drawing 1306], the “Binding rat Inh %” value came out at 84% and the Ki is 3.16 nM. In the case of `CC(C)CNC(=O)c1ccc2c(c1)N=C(c1ccccc1F)c1ccccc1S2` [drawing 1307], the “Binding rat Inh %” value is given as 90% and the Ki was 20 nM. For `Cc1cccc(C2=Nc3cc(C(=O)NCCC(F)(F)F)ccc3Sc3ccccc32)n1` [drawing 1308] the same measures were 91% and 20 nM. For `O=C(NC1CCCC1)c1ccc2c(c1)N=C(c1cccc(F)c1)c1ccccc1S2` [drawing 1310] the same measures were 82% and 25.1 nM. For `CCCCNC(=O)c1ccc2c(c1)N=C(c1ccc(Cl)c(Cl)c1)c1ccccc1S2` [drawing 1311] the same measures were 94% and 3.16 nM.

In the case of `Cc1csc(CNC(=O)c2ccc3c(c2)N=C(c2ccsc2)c2ccccc2S3)c1` [drawing 1313], the “Binding rat Inh %” value worked out at 106% and the Ki was 3.16 nM. Take `CC(C)CNC(=O)c1ccc2c(c1)N=C(c1ccc(Cl)cc1)c1ccccc1S2` [drawing 1314]: the “Binding rat Inh %” value came to 92% and the Ki is 3.16 nM. With `O=C(NCc1cccc(Cl)c1)c1ccc2c(c1)N=C(N1CCCCC1)c1ccccc1[S+]2[O-]` (stereo not shown) [drawing 1315], the Ki was 25.1 nM.

For `O=C(NCc1ccc(F)cc1)c1ccc2c(c1)N=C(c1ccc(Cl)cc1)c1ccccc1S2(=O)=O` [drawing 1316], the Ki is 25.1 nM.

As for `CCCCNC(=O)c1ccc2c(c1)N=C(c1ccc(Cl)cn1)c1ccc(F)cc1S2` [drawing 1317], the “Binding rat Inh %” value was found to be 86% and the Ki was 25.1 nM. Regarding `O=C(NCc1cccnc1)c1ccc2c(c1)N=C(c1ccccc1F)c1ccccc1S2` [drawing 1318], the “Binding rat Inh %” value turned out to be 73% and the Ki was 25.1 nM. `CC(C)CNC(=O)c1ccc2c(c1)N=C(c1ccc(F)cc1)c1ccccc1S2` [drawing 1319]: the “Binding rat Inh %” value came out at 87% and the Ki was 3.16 nM. For `Cc1ccc(CNC(=O)c2ccc3c(c2)N=C(c2ccc(Cl)c(Cl)c2)c2ccccc2S3)o1` [drawing 1320] the same measures were 96% and 3.16 nM. Turning to `O=C(NN1CCCCC1)c1ccc2c(c1)N=C(c1ccc(F)c(Cl)c1)c1ccccc1S2` [drawing 1321], the “Binding rat Inh %” value amounted to 100% and the Ki is 3.16 nM. Regarding `O=C(NCCc1ccccc1)c1ccc2c(c1)N=C(c1cccc(Cl)c1)c1ccccc1S2` [drawing 1322], the Ki was 3.16 nM.

Regarding `CCOCCNC(=O)c1ccc2c(c1)N=C(c1cccc(Br)c1)c1ccccc1S2` [drawing 1323], the “Binding rat Inh %” value is listed as 76% and the Ki was 25.1 nM. For the molecule `O=C(NCc1ccccc1Cl)c1ccc2c(c1)N=C(c1ccccc1)c1ccccc1S2` [drawing 1324], the Ki is 25.1 nM. With `CCCCNC(=O)c1ccc2c(c1)N=C(N1CCCCC1)c1ccccc1S2` [drawing 1325], the Ki is 25.1 nM.

Regarding `O=C(NCc1ccc(F)cc1)c1ccc2c(c1)N=C(C1CCCCC1)c1ccccc1S2(=O)=O` [drawing 1326], the Ki is 25.1 nM.

Regarding `O=C(NCCCc1ccccc1)c1ccc2c(c1)N=C(c1cccc(Cl)c1)c1ccccc1S2` [drawing 1327], the Ki was 3.16 nM. For the molecule `O=C(NCc1ccccc1)c1ccc2c(c1)N=C(c1cccc(Cl)c1)c1ccccc1S2` [drawing 1328], the Ki is 3.16 nM. On the same count and under the same terms, the value for `CC(CNC(=O)c1ccc2c(c1)N=C(C1CCCCC1)c1ccccc1S2)c1ccccc1` (stereo not shown) [drawing 1329] was 3.16 nM.

Consider `CC(C)CCNC(=O)c1ccc2c(c1)N=C(c1ccc(F)cc1)c1ccccc1S2` [drawing 1330], for which the “Binding rat Inh %” value was determined as 91% and the Ki is 3.98 nM. Take `O=C(NCCc1cccc(Cl)c1)c1ccc2c(c1)N=C(c1cccc(Cl)c1)c1ccccc1S2` [drawing 1331]: the Ki is 25.1 nM. The same measure, in the same setting: the value for `O=C(NCCc1ccccc1)c1ccc2c(c1)N=C(c1ccccc1)c1ccccc1S2` [drawing 1332] was 25.1 nM. Turning to `O=C(NCCc1cccnc1)c1ccc2c(c1)N=C(c1cccc(F)c1)c1ccccc1S2` [drawing 1333], the “Binding rat Inh %” value is 94% and the Ki was 25.1 nM. For `O=C(NCCc1cccnc1)c1ccc2c(c1)N=C(c1ccc(Cl)cc1)c1ccccc1S2` [drawing 1334] the same measures were 103% and 25.1 nM. For the molecule `O=C(NCCc1ccccc1)c1ccc2c(c1)N=C(c1ccc(F)cc1)c1ccccc1S2` [drawing 1335], the Ki is 3.98 nM.

Regarding `O=C(NCc1ccc(F)cc1)c1ccc2c(c1)N=C(C1CCCCC1)c1ccccc1S2` [drawing 1336], the Ki is 3.98 nM. With `O=C(NCCC(F)(F)F)c1ccc2c(c1)N=C(c1cccc(F)c1)c1ccccc1S2` [drawing 1337], the “Binding rat Inh %” value came out at 108% and the Ki is 3.98 nM.
